{"source": "paper PMC9704104", "about": "“Towards safer anti-inflammatory therapy: synthesis of new thymol–pyrazole hybrids as dual COX-2/5-LOX inhibitors” (Journal of Enzyme Inhibition and Medicinal Chemistry, 2022)", "test_system": "formalin-induced rat paw oedema", "test": "Formalin-induced paw oedema test (acute inflammation model)", "format": "in vivo", "protocol": "Animals Adult female albino rats weighing 150-250 g were used (Experimental Animal Centre in Alexandria University). All animals accessed to food and water ad libitum and were housed in 12 h dark/light cycle in a controlled condition at 23-250C. They were allowed to acclimatize for 1 week prior to experimentation. Procedures involving animals and their care were conducted in conformity with the Guide for the Care and Use of Laboratory Animals published by US National Institute of Health4 (NIH publication No. 83-23, revised) and following the ethical guidelines of Alexandria University on laboratory animals. In all tests, adequate considerations were adopted to reduce pain or discomfort of animals (Approved by AlexU-IACUC) 3. […]\nFormalin-induced paw edema test (acute inflammation model):\nA solution of freshly prepared formalin 5% was used as a phlogistic agent. A mark was made on the lateral malleolus of the rats’ paws delineating the injection sites. The initial volume of paw was measured by means of digital calibrated Vernier caliper .\nAfter 45 minutes, 40 μl formalin were injected subcutaneously into the sub plantar tissue of the right hind paw of all groups under light ether anesthesia . An equal volume of saline was injected into the left hind paw and served as internal control for the degree of inflammation in the right hind paw. 5, 6 The volume of paw was measured in different treatment groups, 4 h following the formalin injection and the amount of increase in paw volume (edema volume) was calculated by subtracting the volumes before and 4 h after the injection of formalin. Edema was expressed as an increase in the volume of paw, and the percentage of edema inhibition (or percent protection against inflammation) for each rat and each group was calculated according to the following equation: […]\nWhere Vt is the mean volume of edema at specific time interval (4 h) and Vo is the mean volume of edema […]\nRelative potency of the tested compounds was expressed as % inhibition of edema for the tested compounds", "note": "Several values for one entry are separate records, joined by “and”; a condition that tells them apart may be missing. Equal values may be shown once."}
{"smiles": "Cc1ccc(C(C)C)c(O)c1C=NNC(=O)c1cc(-c2ccccc2)n(-c2ccccc2)n1", "note": "[Compound 8d, N'-(2-Hydroxy-3-isopropyl-6-methylbenzylidene)-1,5-diphenyl-1H-pyrazole-3-carbo-hydrazide]", "values": [{"measurement": "% Inhibition of oedema volume", "setting": "4 h, individual rats 1-3, 5 mg/kg orally, 5 mg/kg", "value": "58.10% and 50.70% and 53.10%"}, {"measurement": "Volume of oedema (ml) 4h", "setting": "4 h after formalin, individual rats 1-3, 5 mg/kg orally, 5 mg/kg", "value": "5.95 mL and 6.03 mL and 6.02 mL"}, {"measurement": "Abs diff.", "setting": "4 h minus 0, individual rats 1-3, 5 mg/kg orally, 5 mg/kg", "value": "0.93 and 1.07 and 1.0"}, {"measurement": "% Relative potency (4h) celecoxib, Mean ± SD", "setting": "relative to % inhibition of celecoxib at 4 h, group mean ± SD", "value": "149.0 ± 17.26", "unit": "%"}, {"measurement": "% Relative potency (4h) celecoxib", "setting": "relative to % inhibition of celecoxib at 4 h, individual rats 1-3", "value": "165.40% and 131.0% and 150.70%"}, {"measurement": "% Relative potency (4h) diclofenac, Mean ± SD", "setting": "relative to % inhibition of diclofenac at 4 h, group mean ± SD", "value": "103.7 ± 16.65", "unit": "%"}, {"measurement": "% Relative potency (4h) diclofenac", "setting": "relative to % inhibition of diclofenac at 4 h, individual rats 1-3", "value": "122.90% and 93.20% and 95.0%"}, {"measurement": "Volume of oedema (ml) 0", "setting": "time 0, individual rats 1-3, 5 mg/kg orally, 5 mg/kg", "value": "5.02 mL and 4.96 mL"}]}
